Where a chain is given by its changes, count along the chain named. Where two headings read alike, the source gives them in different places.
Columns and labels:
human TYK2 I960V mutant = target: T1, human TYK2 I960V mutant (Homo sapiens, UniProt P29597, I960V); assay: JAK Caliper enzyme end-point IC50 assay, human TYK2 I960V mutant; details: read-out: Human TYK2 I960V IC50; ATP 1 mM; geometric mean ± SD
T1 sequence (P29597 897-1176 I960V limits assumed): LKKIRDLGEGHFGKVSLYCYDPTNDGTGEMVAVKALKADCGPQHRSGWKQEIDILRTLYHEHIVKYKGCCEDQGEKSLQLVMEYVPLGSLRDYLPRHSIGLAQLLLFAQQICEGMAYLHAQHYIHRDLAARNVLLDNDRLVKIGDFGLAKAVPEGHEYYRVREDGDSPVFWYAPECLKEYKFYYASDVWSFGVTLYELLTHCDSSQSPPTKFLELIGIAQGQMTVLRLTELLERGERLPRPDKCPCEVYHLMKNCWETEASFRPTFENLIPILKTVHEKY

human WT TYK2 = target: T2, human WT TYK2 (Homo sapiens, UniProt P29597); assay: JAK Caliper enzyme end-point IC50 assay, human WT TYK2; format: biochemical; details: ATP 1 mM; geometric mean ± SD
T2 construct: His-tagged recombinant human TYK2, mouse TYK2, and human TYK2 I960V mutant kinase domains were expressed in insect cell/baculovirus systems; His; made in house; host or cells: insect cell/baculovirus
T2 sequence (P29597 897-1176 limits assumed): T1 sequence (P29597 897-1176 I960V limits assumed) with V64I

mouse WT TYK2 = target: T3, mouse WT TYK2 (Mus musculus, UniProt Q9R117); assay: JAK Caliper enzyme end-point IC50 assay, mouse WT TYK2; format: biochemical
T3 construct: His-tagged recombinant human TYK2, mouse TYK2, and human TYK2 I960V mutant kinase domains were expressed in insect cell/baculovirus systems; His; made in house; host or cells: insect cell/baculovirus
T3 sequence (Q9R117 894-1166 limits assumed): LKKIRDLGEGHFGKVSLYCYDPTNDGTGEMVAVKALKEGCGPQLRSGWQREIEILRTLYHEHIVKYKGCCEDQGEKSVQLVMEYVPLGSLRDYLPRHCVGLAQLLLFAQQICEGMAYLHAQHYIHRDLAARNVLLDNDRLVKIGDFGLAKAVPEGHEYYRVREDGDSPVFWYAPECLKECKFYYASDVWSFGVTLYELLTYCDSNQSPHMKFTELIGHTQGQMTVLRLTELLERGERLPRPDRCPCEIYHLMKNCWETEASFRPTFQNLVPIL

[1] = tested on: IL-12 (TYK2/JAK2) induced pSTAT4; assay: Phospho-STAT inhibition in lymphocytes, IL-12, monkey; format: cell-based, monkey (cynomolgus); details: Primates, Leukocyte, read-out: IL-12 (TYK2/JAK2) induced pSTAT4 IC50, Monkey WT
[2] = tested on: IL-12 (TYK2/JAK2) induced pSTAT4; assay: Phospho-STAT inhibition in lymphocytes, IL-12, mouse V980I knock-in; format: cell-based, mouse (C57BL/6 TYK2 V980I knock-in); details: Lymphocyte, read-out: IL-12 (TYK2/JAK2) induced pSTAT4 IC50, Mouse V980I KI
[3] = tested on: IL-12/IL-18 induced IFNγ production; assay: PK/PD IL-12/18 induced interferonγ production model, wild type mice; format: in vivo, C57BL/6 wild type mice; details: Mus musculus, 4 h, read-out: IC50 (IC50,u) for inhibition of IL-12/IL-18-induced IFNγ production
[4] = tested on: IL-15 (JAK1/JAK3) induced pSTAT5; assay: Phospho-STAT inhibition in lymphocytes, IL-15, human; format: cell-based; details: Leukocyte, read-out: IL-15 (JAK1/JAK3) induced pSTAT5 IC50, Human WT
[5] = tested on: IL-12 (TYK2/JAK2) induced pSTAT4; assay: Phospho-STAT inhibition in lymphocytes, IL-12, dog; format: cell-based, dog (Beagle); details: Canis lupus familiaris, Leukocyte, read-out: IL-12 (TYK2/JAK2) induced pSTAT4 IC50, Dog WT
[6] = tested on: IL-12 (TYK2/JAK2) induced pSTAT4; assay: Phospho-STAT inhibition in lymphocytes, IL-12, mouse WT; format: cell-based, mouse (C57BL/6); details: Leukocyte, read-out: IL-12 (TYK2/JAK2) induced pSTAT4 IC50, Mouse WT
[7] = tested on: IL-15 (JAK1/JAK3) induced pSTAT5; assay: Phospho-STAT inhibition in lymphocytes, IL-15, mouse WT; format: cell-based, mouse (C57BL/6); details: Leukocyte, read-out: IL-15 (JAK1/JAK3) induced pSTAT5 IC50, Mouse WT
[8] = tested on: IL-12 (TYK2/JAK2) induced pSTAT4; assay: Phospho-STAT inhibition in lymphocytes, IL-12, human; format: cell-based; details: geomean ± SD, four experiments
[9] = tested on: IL-12/IL-18 induced IFNγ production; assay: PK/PD IL-12/18 induced interferonγ production model, TYK2 V980I mice; format: in vivo, C57BL/6 TYK2 V980I mice; details: Mus musculus, 4 h, read-out: IC50 (IC50,u) for inhibition of IL-12/IL-18-induced IFNγ production

SMILES: CCNC(=O)c1ccc(Nc2ncc(C)c(N3C[C@H]4C[C@@H]3CN4S(C)(=O)=O)n2)cc1 [Compound 15]
- IC50 (human TYK2 I960V mutant): 3590 ± 257 nM
- IC50 (human WT TYK2): 371 ± 37 nM
- IC50 (mouse WT TYK2; ATP 1 mM, geometric mean ± SD): 5240 ± 605 nM

SMILES: CCNC(=O)c1ccc(Nc2nccc(N3C[C@H]4C[C@@H](C3)N4C(=O)C(F)(F)F)n2)cc1 [Compound 16]
- IC50 (human TYK2 I960V mutant): 2570 ± 1560 nM
- IC50 (human WT TYK2): 135 ± 89 nM
- IC50 (mouse WT TYK2; ATP 1 mM, geometric mean ± SD): 3580 ± 1980 nM

SMILES: CCNC(=O)c1ncc(Nc2ncc(F)c(N3C[C@H]4CC[C@@H](C3)N4CCC#N)n2)cc1C [Compound 17]
- IC50 (human TYK2 I960V mutant): 1220 ± 220 nM
- IC50 (human WT TYK2): 46 ± 11 nM
- IC50 (mouse WT TYK2; ATP 1 mM, geometric mean ± SD): 1520 ± 217 nM

SMILES: CCNC(=O)c1ncc(Nc2ncc(Cl)c(N3C[C@H]4C[C@@]4(NC(=O)C4CC4)C3)n2)cc1C [Compound 18]
- IC50 (human TYK2 I960V mutant): 538 ± 622 nM
- IC50 (human WT TYK2): 35 ± 34 nM
- IC50 (mouse WT TYK2; ATP 1 mM, geometric mean ± SD): 841 ± 989 nM

SMILES: CNC(=O)c1ncc(Nc2nccc(N3C[C@H]4C[C@@]4(NC(=O)C4CC4)C3)n2)cc1C [Compound 19]
- IC50 (human TYK2 I960V mutant): 7390 ± 1950 nM
- IC50 (human WT TYK2): 208 ± 51 nM
- IC50 (mouse WT TYK2; ATP 1 mM, geometric mean ± SD): 8160 ± 2030 nM

SMILES: Cc1cnc(Nc2cnn(CCO)c2)nc1N1CC2C[C@@]2(NC(=O)C2CC2)C1 (some centres unmarked) [Compound 20]
- IC50 (human TYK2 I960V mutant): 435 ± 174 nM
- IC50 (human WT TYK2): 67 ± 21 nM
- IC50 (mouse WT TYK2; ATP 1 mM, geometric mean ± SD): 784 ± 207 nM

SMILES: Cc1cnc(Nc2cnn(C)c2)nc1N1C[C@H]2[C@@H](C)[C@@]2(NC(=O)C2CC2)C1 [Compound 21]
- IC50 (human TYK2 I960V mutant): 484 ± 369 nM
- IC50 (human WT TYK2): 50 ± 46 nM
- IC50 (mouse WT TYK2; ATP 1 mM, geometric mean ± SD): 1160 ± 1040 nM

SMILES: Cn1cc(Nc2nccc(N3C[C@H]4CC[C@@H](C3)N4CCC#N)n2)cn1 [Compound 22]
- IC50 (human TYK2 I960V mutant): 1020 ± 263 nM
- IC50 (human WT TYK2): 73 ± 18 nM
- IC50 (mouse WT TYK2; ATP 1 mM, geometric mean ± SD): 1330 ± 396 nM

SMILES: C[C@@H]1C2CN(c3nc(Nc4cn[nH]c4)ncc3F)C[C@@]21NC(=O)[C@H]1CC1(F)F (some centres unmarked) [Compound 23]
- IC50 (human TYK2 I960V mutant): 388 ± 50 nM
- IC50 (human WT TYK2): 13 ± 4 nM
- IC50 (mouse WT TYK2; ATP 1 mM, geometric mean ± SD): 466 ± 78 nM

SMILES: Cn1cc(Nc2ncc(F)c(N3C[C@H]4C[C@@]4(NC(=O)[C@@H]4CC4(F)F)C3)n2)cn1 [Compound 26]
- IC50 (human TYK2 I960V mutant): 1560 ± 257 nM
- IC50 (human WT TYK2): 38 ± 8 nM
- IC50 (mouse WT TYK2; ATP 1 mM, geometric mean ± SD): 2120 ± 465 nM

SMILES: Cc1cnc(Nc2cnn(C)c2)nc1N1C[C@H]2CC[C@@H](C1)N2C(=O)[C@@H]1CC1(F)F [Compound 28]
- IC50 (human TYK2 I960V mutant): 55 ± 25 nM
- IC50 (human WT TYK2): 15 ± 6 nM
- IC50 (mouse WT TYK2; ATP 1 mM, geometric mean ± SD): 180 ± 89 nM

SMILES: Cn1cc(Nc2ncc(Cl)c(N3C[C@H]4CC[C@@H](C3)N4C(=O)[C@@H]3CC3(F)F)n2)cn1 [Compound 29]
- IC50 (human TYK2 I960V mutant): 30 ± 1 nM
- IC50 (human WT TYK2): 8 ± 4 nM
- IC50 (mouse WT TYK2; ATP 1 mM, geometric mean ± SD): 100 ± 17 nM

SMILES: C[C@@H]1[C@@H]2CN(c3nc(Nc4cnn(C)c4)ncc3F)C[C@]12NC(=O)[C@@H]1CC1(F)F [PF-06673518]
- IC50 [1]: 527 ± 147 nM
- IC50 [2]: 128 ± 11 nM
- IC50 [3]: 1280 nM
- IC50 [4]: 135 ± 15 nM
- IC50 [5]: 679 ± 254 nM
- IC50 [6]: 518 ± 84 nM
- IC50 [7]: 127 ± 6.7 nM
- IC50 ([8]; Homo sapiens, Leukocyte, read-out: IL-12 (TYK2/JAK2) induced pSTAT4 IC50, Human WT, human leukocytes, no serum or other proteins): 64 nM
- IC50 ([8]; read-out: IL-12 (TYK2/JAK2) induced pSTAT4 IC50, Human WT, human leukocytes, no serum or other proteins): 64.3 ± 10 nM
- IC50 [9]: 26.6 nM
- IC50 (mouse WT TYK2): 1410 nM

— article PMC7265552 (Scientific Reports, 2020)
